According to US20090291857A1, “METHODS TO IDENTIFY INHIBITORS OF THE UNFOLDED PROTEIN RESPONSE” (THE BOARD OF TRUSTEES OF THE LELAND STANFORD JUNIOR …, priority 2006, published 2009):

How the values were obtained:
[1] = Toxicity of increasing doses in SCID mice; format: in vivo
Description: Female 4-6 week-old SCID (B6.CB17) mice supplied by Stanford University Animal Facility were housed in the same facility (American Association of Laboratory Animal Care-approved) with 12 hour light cycles. Food and water were provided ad libitum. All experiments were approved by the institutional care and use committee. The potential toxicities of irestatin 9389 were examined in SCID mice injected i.p. once daily over 4 consecutive days with increasing doses of irestatin 9389 or vehicle control. […] For xenografts, 2×10^6 HT1080 fibrosarcoma cells were resuspended in 50-75 μl PBS and injected s.c. in the dorsal flanks of host mice. When the implanted tumors reached a mean volume of ˜150 mm^3, mice were randomly assigned into different treatment groups. Mice were dosed by i.p. bolus injection with either vehicle (50% DMSO, 20% cremophor EL, 30% ethanol) or irestatin 9389 (50 mg/kg). Tumors (6-8 per group) were measured every 2-4 days with calipers. Tumor volume was calculated using the formula [(W^2×L) 0.52] where W=width and L=length.

IRE1α-cyto = target: T1, IRE1α-cyto (Homo sapiens, UniProt O75460); assay: In vitro IRE1α endonuclease (ribonuclease) assay; format: biochemical; details: 2.5 μM
T1 construct: purified the full cytosolic portion of IRE1α (His6-IRE1α-cyto) containing both kinase and endonuclease domains; 6x-His; made in house; host or cells: bacteria
T1 sequence (O75460 465-977 limits assumed): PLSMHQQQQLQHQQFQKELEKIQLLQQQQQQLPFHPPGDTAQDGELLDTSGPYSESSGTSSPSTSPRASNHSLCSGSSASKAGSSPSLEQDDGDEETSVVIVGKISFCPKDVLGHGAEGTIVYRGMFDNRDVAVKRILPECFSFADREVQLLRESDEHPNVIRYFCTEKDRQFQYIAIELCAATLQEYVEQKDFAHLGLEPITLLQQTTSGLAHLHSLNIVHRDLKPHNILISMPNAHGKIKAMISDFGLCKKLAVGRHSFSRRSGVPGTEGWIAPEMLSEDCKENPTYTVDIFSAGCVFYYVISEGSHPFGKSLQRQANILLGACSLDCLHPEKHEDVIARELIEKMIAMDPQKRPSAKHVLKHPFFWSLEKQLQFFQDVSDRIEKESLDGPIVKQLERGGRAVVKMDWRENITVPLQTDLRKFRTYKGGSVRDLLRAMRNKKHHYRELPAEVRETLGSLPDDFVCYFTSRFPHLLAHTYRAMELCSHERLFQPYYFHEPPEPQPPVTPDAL
Description: The in vitro ribonuclease assays were carried out using purified IRE1α-cyto essentially as described. Gonzalez and Walter, Methods Mol Biol 160: 25-36 (2001); Gonzalez et al., Embo J 18: 3119-3132 (1999). For each reaction, 5 μg purified IRE1α-cyto was incubated with 300 ng of fluorescein-labeled RNA stem-loop substrate at 37° C. in a total volume of 300 μl. Aliquots (50 μl) were withdrawn at the indicated times and mixed with an equal volume of stop solution. Id. Reactions were analyzed by SDS-PAGE using 10-20% acrylamide gradient gels. The sequence for the hXBP-1 3′ RNA stem-loop substrate is as follows: 5′[…] G 3′ (SEQ ID NO: 8). […]
HT1080 cells were exposed to DMSO vehicle (lane 1), irestatin 9389 (2.5 μM; lane 2) for 16 hours or Tm (5 μg/ml; lane 3) for 8 hours. Following treatments, cells were harvested, lysed, and analyzed by immunoblotting using anti-Grp78 antibody (top) or anti-actin (bottom) as a loading control. […] Cell lysates were analyzed by Western immunoblotting using anti-IRE1α (bottom) or anti-phospho-IRE1α antibodies (top). […] Lysates were analyzed by Western blot using antisera specific for phospho-JNK1 (top) or total JNK1 (bottom). […] F. Quantification of RNA cleavage kinetics. […] Samples were analyzed as in (E).
Next we determined whether irestatin 9389 inhibited the endonuclease function of IRE1α. […]

For Cc1csc(NC(=O)CSc2nc3c(c(C(F)(F)F)c2C#N)CCC3)n1 [Compound 9389], the “toxicity of dosing regimen” value ([1]; SCID mice, i.p., 50-60 mg/kg) was “without apparent toxicity”, the “dosing regimen of 50-60 mg/kg relative to LD50” value ([1]; female, SCID (B6.CB17), mouse, in vivo, 4 days) was 75 % of the LD50 value and the “cleavage of XBP-1 RNA substrate by His6-IRE1α-cyto” value (IRE1α-cyto) was “strongly inhibited cleavage”.
